Source: patent publication US20260258420A1, “COMPOSITIONS AND METHODS FOR THE TREATMENT OF HUMAN PAPILLOMAVIRUS-DRIVEN CANCERS” (priority 2023, published 2026)

Legend:
Assay type in all cases: cell-based
[1] = tested on: 16 HPV-positive and 17 HPV-negative HNSCC and cervical squamous cancer cell lines; assay: High-throughput drug screen (HTDS), whole panel, comparison by HPV status; conditions: for efficacy in HPV-positive vs HPV-negative cell lines: AOC_LD as a dichotomous variable; for odds ratio: sensitivity in HPV-positive vs HPV-negative cell lines; for cell death: at concentrations known to inhibit mTOR
Method: (§1) The concordance correlation coefficient was computed to assess the reproducibility of the normalized growth rates of the 2 replicates. […] A chi-square test was applied to compare drug classification and the cluster membership. The Fisher exact test was applied to compare mutations status (wild-type and mutant) and drugs' response data (sensitive and resistant).
(§2) The effects of 864 unique drugs from 51 classes was tested in 16 HPV-positive and 17 HPV-negative HNSCC and cervical squamous cancer cell lines (Table 2) that were characterized previously (Kaiu, et al., Oncotarget 2017; 8(49):86369-83).

[2] = tested on: 16 HPV-positive HNSCC and cervical squamous cancer cell lines; assay: High-throughput drug screen (HTDS), cell death by AOC_LD, HPV-positive cell lines; conditions: for HPV positive Resistant (number of cell lines): resistant = AOC_LD 0; for HPV positive Sensitive (number of cell lines): sensitive = AOC_LD greater than 0
Method: as §1, §2

[3] = tested on: 17 HPV-negative HNSCC and cervical squamous cancer cell lines; assay: High-throughput drug screen (HTDS), cell death by AOC_LD, HPV-negative cell lines; conditions: for HPV negative Resistant (number of cell lines): resistant = AOC_LD 0; for HPV negative Sensitive (number of cell lines): sensitive = AOC_LD greater than 0
Method: as §1, §2

## Cc1csc(-c2nnc(Nc3ccc(Oc4ncccc4-c4ccnc(N)n4)cc3)c3ccccc23)c1 [AMG900]
[1]
  efficacy in HPV-positive vs HPV-negative cell lines: tended to be more effective in HPV-positive cell lines

## COc1cc(NS(C)(=O)=O)ccc1Nc1c2ccccc2nc2ccccc12 [AMSACRINE]
[2]
  HPV positive Resistant (number of cell lines): 5
  HPV positive Sensitive (number of cell lines): 11
[3]
  HPV negative Resistant (number of cell lines): 15
  HPV negative Sensitive (number of cell lines): 2

## Clc1ccc(C2(c3ccc(-c4cn[nH]c4)cc3)CCNCC2)cc1 [AT7867]
[1]
  odds ratio: Inf
[2]
  HPV positive Resistant (number of cell lines): 12
  HPV positive Sensitive (number of cell lines): 4
[3]
  HPV negative Resistant (number of cell lines): 17
  HPV negative Sensitive (number of cell lines): 0

## O=C(Nc1c[nH]nc1-c1nc2ccc(CN3CCOCC3)cc2[nH]1)NC1CC1 [AT9283]
[2]
  HPV positive Resistant (number of cell lines): 3
  HPV positive Sensitive (number of cell lines): 13
[3]
  HPV negative Resistant (number of cell lines): 10
  HPV negative Sensitive (number of cell lines): 7

## CNC(=O)c1ccccc1Sc1ccc2c(/C=C/c3ccccn3)n[nH]c2c1 [AXITINIB]
[2]
  HPV positive Resistant (number of cell lines): 8
  HPV positive Sensitive (number of cell lines): 8
[3]
  HPV negative Resistant (number of cell lines): 16
  HPV negative Sensitive (number of cell lines): 1

## COc1ccc(-c2ccc3c(N4CCOC[C@@H]4C)nc(N4CCOC[C@@H]4C)nc3n2)cc1CO [AZD8055]
[1]
  odds ratio: Inf
[2]
  HPV positive Resistant (number of cell lines): 11
  HPV positive Sensitive (number of cell lines): 5
[3]
  HPV negative Resistant (number of cell lines): 17
  HPV negative Sensitive (number of cell lines): 0

## O=C(Nc1cccc(Nc2ncc(Br)c(NCCc3cnc[nH]3)n2)c1)N1CCCC1 [BX912]
[1]
  odds ratio: 14.66
[2]
  HPV positive Resistant (number of cell lines): 8
  HPV positive Sensitive (number of cell lines): 8
[3]
  HPV negative Resistant (number of cell lines): 16
  HPV negative Sensitive (number of cell lines): 1

## CC(C)C[C@H](NC(=O)[C@H](CCc1ccccc1)NC(=O)CN1CCOCC1)C(=O)N[C@@H](Cc1ccccc1)C(=O)N[C@@H](CC(C)C)C(=O)[C@@]1(C)CO1 [CARFILZOMIB]
[1]
  odds ratio: Inf
[2]
  HPV positive Resistant (number of cell lines): 0
  HPV positive Sensitive (number of cell lines): 16
[3]
  HPV negative Resistant (number of cell lines): 5
  HPV negative Sensitive (number of cell lines): 12

## CN(C)c1ccc(-c2nc3ncc(Cl)c(N4CCN(CC(=O)Nc5nccs5)CC4)c3[nH]2)cc1 [CCT129202]
[1]
  efficacy in HPV-positive vs HPV-negative cell lines: tended to be more effective in HPV-positive cell lines

## Cc1cc(CN2CCN(c3c(Br)cnc4nc(-c5ccc(N6CCN(C)CC6)cc5)[nH]c34)CC2)no1 [CCT137690]
[1]
  efficacy in HPV-positive vs HPV-negative cell lines: tended to be more effective in HPV-positive cell lines

## COc1cc2c(c(OC)c1OC)-c1ccc(OC)c(=O)cc1[C@@H](NC(C)=O)CC2 [COLCHICINE]
[2]
  HPV positive Sensitive (number of cell lines): 15
[3]
  HPV negative Sensitive (number of cell lines): 10

## Cc1nc(N)sc1-c1ccnc(Nc2ccc(N3CCOCC3)cc2)n1 [CYC116]
[1]
  efficacy in HPV-positive vs HPV-negative cell lines: tended to be more effective in HPV-positive cell lines
[2]
  HPV positive Resistant (number of cell lines): 7
  HPV positive Sensitive (number of cell lines): 9
[3]
  HPV negative Resistant (number of cell lines): 15
  HPV negative Sensitive (number of cell lines): 2

## CN1CCN(c2ccc3nc(-c4c(N)c5c(F)cccc5[nH]c4=O)[nH]c3c2)CC1 [DOVITINIB]
[2]
  HPV positive Resistant (number of cell lines): 10
  HPV positive Sensitive (number of cell lines): 6
[3]
  HPV negative Resistant (number of cell lines): 16
  HPV negative Sensitive (number of cell lines): 1

## COc1cc([C@@H]2c3cc4c(cc3[C@@H](O[C@@H]3O[C@@H]5CO[C@@H](C)O[C@H]5[C@H](O)[C@H]3O)[C@H]3COC(=O)[C@H]23)OCO4)cc(OC)c1O [ETOPOSIDE]
[2]
  HPV positive Resistant (number of cell lines): 7
  HPV positive Sensitive (number of cell lines): 9
[3]
  HPV negative Resistant (number of cell lines): 15
  HPV negative Sensitive (number of cell lines): 2

## Nc1nc(F)nc2c1ncn2[C@@H]1O[C@H](CO)[C@@H](O)[C@@H]1O [FLUDARABINE]
[2]
  HPV positive Resistant (number of cell lines): 13
  HPV positive Sensitive (number of cell lines): 3
[3]
  HPV negative Resistant (number of cell lines): 6
  HPV negative Sensitive (number of cell lines): 11

## CCn1cc(-c2ccnc3[nH]c(-c4cccc(CN(C)C)c4)cc23)c(-c2ccc(NC(=O)N(C)C)cc2)n1 [GSK1070916]
[1]
  efficacy in HPV-positive vs HPV-negative cell lines: tended to be more effective in HPV-positive cell lines
[2]
  HPV positive Resistant (number of cell lines): 4
  HPV positive Sensitive (number of cell lines): 12
[3]
  HPV negative Resistant (number of cell lines): 12
  HPV negative Sensitive (number of cell lines): 5

## Nc1nc(Nc2ccc(S(N)(=O)=O)cc2)nn1C(=O)c1c(F)cccc1F [JNJ7706621]
[1]
  efficacy in HPV-positive vs HPV-negative cell lines: more effective in HPV-positive than in HPV-negative cell lines
[2]
  HPV positive Resistant (number of cell lines): 4
  HPV positive Sensitive (number of cell lines): 12
[3]
  HPV negative Resistant (number of cell lines): 11
  HPV negative Sensitive (number of cell lines): 6

## CCCCCCOC(=O)[C@]1(O)C[C@@H]2O[C@@]1(C)n1c3ccccc3c3c4c(c5c6ccccc6n2c5c31)C(=O)NC4 [KT5720]
[1]
  odds ratio: Inf
[2]
  HPV positive Resistant (number of cell lines): 12
  HPV positive Sensitive (number of cell lines): 4
[3]
  HPV negative Resistant (number of cell lines): 17
  HPV negative Sensitive (number of cell lines): 0

## O=C(O)[C@]1(Cc2cccc(Nc3nccs3)n2)CC[C@@H](Oc2cccc(Cl)c2F)CC1 [MK5108]
[1]
  efficacy in HPV-positive vs HPV-negative cell lines: tended to be more effective in HPV-positive cell lines

## O=C(O)c1ccc(Nc2ncc3c(n2)-c2ccc(Cl)cc2C(c2c(F)cccc2F)=NC3)cc1 [MLN8054]
[1]
  efficacy in HPV-positive vs HPV-negative cell lines: tended to be more effective in HPV-positive cell lines

## COC(=O)c1ccc2c(c1)NC(=O)/C2=C(\Nc1ccc(N(C)C(=O)CN2CCN(C)CC2)cc1)c1ccccc1 [NINTEDANIB]
[1]
  odds ratio: Inf
[2]
  HPV positive Resistant (number of cell lines): 11
  HPV positive Sensitive (number of cell lines): 5
[3]
  HPV negative Resistant (number of cell lines): 17
  HPV negative Sensitive (number of cell lines): 0

## CC(=O)NCC(=O)N1[C@@H]2CC[C@H]1c1ccc(Nc3ncc(C(F)(F)F)c(NC4CCC4)n3)cc12 [PF03814735]
[1]
  efficacy in HPV-positive vs HPV-negative cell lines: tended to be more effective in HPV-positive cell lines
  odds ratio: 7.02
[2]
  HPV positive Resistant (number of cell lines): 8
  HPV positive Sensitive (number of cell lines): 8
[3]
  HPV negative Resistant (number of cell lines): 15
  HPV negative Sensitive (number of cell lines): 2

## CCc1cccc(CC)c1NC(=O)N1Cc2n[nH]c(NC(=O)c3ccc(N4CCN(C)CC4)cc3)c2C1 [PHA680632]
[1]
  efficacy in HPV-positive vs HPV-negative cell lines: tended to be more effective in HPV-positive cell lines

## O=C(Nc1cccc(Cl)c1)Nc1ncc(CCNc2ncnc3ccsc23)s1 [SNS314]
[1]
  efficacy in HPV-positive vs HPV-negative cell lines: tended to be more effective in HPV-positive cell lines
[2]
  HPV positive Resistant (number of cell lines): 8
  HPV positive Sensitive (number of cell lines): 8
[3]
  HPV negative Resistant (number of cell lines): 15
  HPV negative Sensitive (number of cell lines): 2

## CCS(=O)(=O)c1cccc(-c2cc(C(=O)NC3CCN(C)CC3)c(C)c3[nH]c4ncc(C)cc4c23)c1 [TAK901]
[1]
  efficacy in HPV-positive vs HPV-negative cell lines: tended to be more effective in HPV-positive cell lines

## Cc1cc(Nc2cc(N3CCN(C)CC3)nc(Sc3ccc(NC(=O)C4CC4)cc3)n2)[nH]n1 [TOZASERTIB, tozasertib]
[1]
  efficacy in HPV-positive vs HPV-negative cell lines: tended to be more effective in HPV-positive cell lines
[2]
  HPV positive Resistant (number of cell lines): 7
  HPV positive Sensitive (number of cell lines): 9
[3]
  HPV negative Resistant (number of cell lines): 15
  HPV negative Sensitive (number of cell lines): 2

## COc1cc2c(Nc3ccc(NC(=O)c4ccccc4)cc3)ncnc2cc1OCCCN1CCOCC1 [ZM447439]
[1]
  efficacy in HPV-positive vs HPV-negative cell lines: tended to be more effective in HPV-positive cell lines
  odds ratio: 7.24
[2]
  HPV positive Resistant (number of cell lines): 6
  HPV positive Sensitive (number of cell lines): 10
[3]
  HPV negative Resistant (number of cell lines): 14
  HPV negative Sensitive (number of cell lines): 3

## CO[C@@H](C(=O)N1Cc2n[nH]c(NC(=O)c3ccc(N4CCN(C)CC4)cc3)c2C1)c1ccccc1 [danusertib]
[1]
  efficacy in HPV-positive vs HPV-negative cell lines: tended to be more effective in HPV-positive cell lines

## CO[C@H]1C[C@@H]2CC[C@@H](C)[C@@](O)(O2)C(=O)C(=O)N2CCCC[C@H]2C(=O)O[C@H]([C@H](C)C[C@@H]2CC[C@@H](OCCO)[C@H](OC)C2)CC(=O)[C@H](C)/C=C(\C)[C@@H](O)[C@@H](OC)C(=O)[C@H](C)C[C@H](C)/C=C/C=C/C=C/1C [everolimus]
[1]
  cell death: caused cell death only in a single cell line

## COc1ccc([C@@H]2CC(=O)c3c(O)cc(O[C@@H]4O[C@H](CO[C@@H]5O[C@@H](C)[C@H](O)[C@@H](O)[C@H]5O)[C@@H](O)[C@H](O)[C@H]4O)cc3O2)cc1O [hesperidin]
[1]
  efficacy in HPV-positive vs HPV-negative cell lines: more effective in HPV-positive than in HPV-negative cell lines

## CO[C@H]1C[C@@H]2CC[C@@H](C)[C@@](O)(O2)C(=O)C(=O)N2CCCC[C@H]2C(=O)O[C@H]([C@H](C)C[C@@H]2CC[C@@H](OP(C)(C)=O)[C@H](OC)C2)CC(=O)[C@H](C)/C=C(\C)[C@@H](O)[C@@H](OC)C(=O)[C@H](C)C[C@H](C)/C=C/C=C/C=C/1C [ridaforolimus]
[1]
  cell death: caused cell death only in a single cell line

## BLEOMYCIN
[1]
  odds ratio: 5.12
[2]
  HPV positive Resistant (number of cell lines): 6
  HPV positive Sensitive (number of cell lines): 10
[3]
  HPV negative Resistant (number of cell lines): 13
  HPV negative Sensitive (number of cell lines): 4

## WYE354
[1]
  odds ratio: 8.98
[2]
  HPV positive Resistant (number of cell lines): 10
  HPV positive Sensitive (number of cell lines): 6
[3]
  HPV negative Resistant (number of cell lines): 16
  HPV negative Sensitive (number of cell lines): 1
